According to patent publication US8853228B2, “Heterocyclic analogs of propargyl-linked inhibitors of dihydrofolate reductase” (University of Connecticut, priority 2011, dated 2014):
≈ marks a conversion by molar mass, not a printed value. Read-outs that look alike come from different tables or passages of the source.

How the values were obtained:
hDHFR = hDHFR (Homo sapiens (Human), UniProt P00374); assay: hDHFR enzyme inhibition assay; type: biochemical
Procedure: hDHFR: The gene for hDHFR was amplified using PCR from cDNA obtained from ATCC. The gene was inserted in a pET41 vector with a C-terminal histidine tag for affinity chromatography. The resulting construct was verified by sequencing. The hDHFR protein was expressed in E. coli and purified using a nickel affinity column.
(§1) Enzyme and inhibitor were allowed to incubate for 5 min before adding dihydrofolate to initiate the reaction. Enzyme assays were performed at least four times. IC50 values and their standard deviations were calculated in the presence of varying concentrations of inhibitor near the IC50 concentration.
(§2) Enzyme inhibition assays were performed by monitoring the rate of NADPH oxidation by the DHFR enzyme at an absorbance of 340 nm. Assays were performed in the presence of saturating concentrations of NADPH and initiated with dihydrofolate. All assays were completed at 25° C. in a buffer containing 20 mM TES pH 7.0, 50 mM KCl, 10 mM 2-mercaptoethanol, 0.5 mM EDTA and 1 mg/mL BSA. Inhibition was measured at least three times with inhibitor concentrations near the IC50 value and the average IC50 value is reported with a standard deviation.

S. aureus DHFR = S. aureus DHFR (Staphylococcus aureus, UniProt P0A017); type: biochemical; details: for Selectivity (h/Sa): IC50 (human)/IC50 (pathogen); for IC50: average of at least three measurements
Procedure: as §2

S. pyogenes DHFR = S. pyogenes DHFR (Streptococcus pyogenes, UniProt Q9A091); assay: S. pyogenes DHFR enzyme inhibition assay; type: biochemical; details: for Selectivity (h/Sp): IC50 (human)/IC50 (pathogen); for IC50: average of at least three measurements
Procedure: as §2

S. aureus 13709 (MRSA) = assay: Antibacterial MIC, broth microdilution with Alamar Blue; type: cell-based, Staphylococcus aureus; details: for Selectivity MRSA: IC50 (MCF10)/MIC (pathogen); for MIC MRSA: Table 6
Procedure: (§3) For susceptibility testing, 10 μL of glycerol stock was suspended in a 10 mL shake flask culture of chemically defined Isosensitest broth (Oxoid) supplemented with 2% w/v glucose. A sample of the shake flask culture was diluted to 1×10^6 cells/mL in media and added to 96-well test plates (100 μL per well) containing test compounds dispensed in DMSO (2 μL). After an incubation period (30° C.) determined from the strain specific doubling time, a 0.03% w/v aqueous solution of resazurin (10 μL) was added and the plates were allowed to incubate; each well was then scored for dye reduction.

Streptococcus pyogenes = assay: as above; type: cell-based; details: for Selectivity S. pyogenes: IC50 (MCF10)/MIC (pathogen)
Procedure: as §3

MCF-10 cells = assay: Mammalian cell toxicity, MCF-10; type: cell-based, human; details: cytotoxicity
Procedure: (§4) Adherent cell lines were maintained in Eagle's Minimal Essential Media (Sigma-Aldrich, St. Louis, Mo., USA) with 2 mM glutamine and Earle's Balanced Salt Solution (HyClone, Logan, Utah, USA) adjusted to contain 1.5 g/L sodium bicarbonate, 0.1 mM non-essential amino acids, 1 mM sodium pyruvate and 10% fetal calf serum. Fetal calf serum used in these assays was lot matched throughout. […] Toxicity assays were conducted between passages 10-20. Target compound toxicity was measured by incubating the test compound with the cells for 4 h, washing the cells and finally treating the cells with Alamar Blue. After 12-24 h, the fluorescence of the reduced dye was measured. Fluorescence intensity as a function of test compound concentration was fit to the Fermi equation, using non-linear least squares regression analysis, to estimate IC50 values.

HepG2 cells = assay: Mammalian cell toxicity, HepG2; type: cell-based; details: cytotoxicity
Procedure: as §4

CgDHFR = CgDHFR (Candida glabrata (strain ATCC 2001 / BCRC 20586 / JCM 3761 / NBRC 0622 / NRRL Y-65 / CBS 138) (Yeast) (Nakaseomyces glabratus), UniProt Q6FPH0); assay: biochemical
Text: CgDHFR: The gene coding CgDHFR was amplified by PCR from C. glabrata genomic DNA obtained from ATCC. The gene was inserted in a pET41 vector that includes a C-terminal histidine tag for nickel affinity chromatography. E. coli cells were transformed and the resulting plasmid was verified by sequencing. The protein was expressed in E. coli BL21(DE3) cells with isopropyl β-D-thiogalactoside induction. Following growth, the cells were lysed with BugBuster (Novagen) and centrifuged; the supernatant was loaded on a Ni-NTA column. The column was washed with 20 mM Tris (pH 8.0)/0.4 M NaCl and the protein was eluted using a gradient of 20 mM Tris (pH 8.0), 0.3 M NaCl, 20% glycerol, 0.1 mM EDTA, 2 mM DTT, 250 mM imidazole. Fractions containing CgDHFR were identified by SDS-PAGE, combined and desalted using a PD-10 column with a buffer containing 20 mM Tris pH 8.0, 20% glycerol, 0.1 mM EDTA and 2 mM DTT. The protein was concentrated to 13 mg/mL.
as §1

C. glabrata = assay: Antifungal assay (MIC, Alamar Blue); type: cell-based, Candida glabrata; details: for MIC (Cg): C. glabrata, YM media; for Antifungal activity MIC: Table 11, C. glabrata
Procedure: Antifungal assays were performed using C. glabrata as a suspension in 50% glycerol at −78° C. For susceptibility testing, a streak of stock culture was made on SDA agar and grown at 30° C. for 48 h. One pure colony of the test organism was recovered from the plate, suspended in appropriate media and grown in a 5 mL shake flask culture. A sample of the shake flask culture was diluted to 1×10^5 cells/mL in media and added to 96-well test plates (100 μL per well) containing test compounds dispensed in DMSO (1 μL). Amphotericin and ketoconazole were used as controls. After an incubation period determined from the strain specific doubling time, Alamar Blue (10 μL) was added, allowed to incubate; each well was scored for dye reduction.
Several representative compounds were also evaluated in thymidine-depleted media. It has been shown that high levels of thymidine interfere with accurate susceptibility testing of antifolates. To compensate for this, antifolates are frequently evaluated in a controlled minimal media with a low thymidine concentration. […] In addition, the compounds were also evaluated for mammalian cell toxicity using MCF-10 and HepG2 cell lines. Cellular selectivity is reported as the IC50 value for the MCF-10 human cell line divided by the MIC value (μg/mL) (Table 8).

ChDHFR-TS = ChDHFR-TS (Cryptosporidium hominis, UniProt Q27552); assay: ChDHFR enzyme inhibition assay; type: biochemical
Procedure: as §1
Compounds were evaluated in spectrophotometric enzyme assays using ChDHFR-TS and hDHFR. Inhibition constants (IC50) were measured (see Table 4). […] The compound abbreviations in Table 4 refer to the following compounds: […]

[1] = Table 5, average of at least three measurements, read-out: IC50 human
[2] = Table 7, read-out: IC50 (CgDHFR)
[3] = Table 11, read-out: CgDHFR IC50

Chain of S. pyogenes DHFR (Q9A091 1-165): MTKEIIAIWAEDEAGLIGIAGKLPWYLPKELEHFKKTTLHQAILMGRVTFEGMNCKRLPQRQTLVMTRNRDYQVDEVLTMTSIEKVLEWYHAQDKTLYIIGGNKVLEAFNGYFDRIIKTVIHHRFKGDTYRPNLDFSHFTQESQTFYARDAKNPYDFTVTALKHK
Chain of hDHFR (P00374 whole entry): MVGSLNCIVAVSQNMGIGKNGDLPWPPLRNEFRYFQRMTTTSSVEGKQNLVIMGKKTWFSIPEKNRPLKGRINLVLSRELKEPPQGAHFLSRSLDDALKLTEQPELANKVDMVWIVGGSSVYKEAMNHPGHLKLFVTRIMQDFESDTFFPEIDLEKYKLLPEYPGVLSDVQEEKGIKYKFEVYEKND
Chain of CgDHFR (Q6FPH0 1-217): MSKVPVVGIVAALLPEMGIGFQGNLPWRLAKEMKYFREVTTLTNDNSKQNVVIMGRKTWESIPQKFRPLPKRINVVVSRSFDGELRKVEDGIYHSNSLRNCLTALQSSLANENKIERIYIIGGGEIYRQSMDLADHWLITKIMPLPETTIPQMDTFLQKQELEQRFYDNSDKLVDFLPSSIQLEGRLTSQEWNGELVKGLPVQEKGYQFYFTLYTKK
Chain of ChDHFR-TS (Q27552 1-521): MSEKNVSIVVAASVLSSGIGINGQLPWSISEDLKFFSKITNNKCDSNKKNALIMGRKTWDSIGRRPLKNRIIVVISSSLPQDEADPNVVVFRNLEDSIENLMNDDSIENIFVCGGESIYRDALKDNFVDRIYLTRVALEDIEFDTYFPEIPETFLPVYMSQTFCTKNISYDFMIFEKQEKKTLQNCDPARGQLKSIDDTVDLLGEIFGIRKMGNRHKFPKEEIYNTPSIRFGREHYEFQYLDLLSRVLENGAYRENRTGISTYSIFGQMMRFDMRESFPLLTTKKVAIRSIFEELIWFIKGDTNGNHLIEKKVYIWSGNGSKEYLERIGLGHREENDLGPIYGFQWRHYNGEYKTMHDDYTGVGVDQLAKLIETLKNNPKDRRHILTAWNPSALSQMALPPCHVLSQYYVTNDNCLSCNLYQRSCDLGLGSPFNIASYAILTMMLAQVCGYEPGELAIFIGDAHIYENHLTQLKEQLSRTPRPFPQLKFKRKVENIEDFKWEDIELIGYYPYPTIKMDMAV

SMILES	IC50 (hDHFR; [1])	Selectivity (h/Sa) (S. aureus DHFR)	IC50 (S. aureus DHFR)	Selectivity (h/Sp) (S. pyogenes DHFR)	IC50 (S. pyogenes DHFR)	Selectivity MRSA (S. aureus 13709 (MRSA))	MIC MRSA (S. aureus 13709 (MRSA))	Selectivity S. pyogenes (Streptococcus pyogenes)	MIC S. pyogenes (Streptococcus pyogenes; Table 6)	IC50 (MCF-10 cells; Table 6)	other results
COc1ccc(-c2ccccc2)cc1C(C)C#Cc1c(C)nc(N)nc1N (centres unmarked) [Compound 145]	97 ± 10 nM	1.3	75 ± 4 nM	4	23 ± 1.5 nM	53	0.716 µg/mL (≈ 2 µM)	950	0.04 µg/mL (≈ 0.112 µM)	38000 nM	IC50 (HepG2 cells; Table 6): 94000 nM
COc1cc(C(C)C#Cc2c(C)nc(N)nc2N)cc(N2C[C@@H](C)O[C@@H](C)C2)c1 (mixture of isomers) [Compound 156]											IC50 (hDHFR; Table 7, read-out: IC50 (hDHFR)): 330 ± 6 nM; Selectivity (CgDHFR; Table 7, hDHFR vs CgDHFR): 4.9 ± 0.4; IC50 (CgDHFR; [2]): 68 ± 5 nM; MIC (Cg) (C. glabrata): 6.3 µg/mL (≈ 15.9 µM); Selectivity Index (C. glabrata; IC50 (MCF-10)/MIC (C. glabrata)): 108; MIC C. glabrata (C. glabrata; IsoSensitest media supplemented with 2% glucose (thymidine-depleted)): 2.9 µg/mL (≈ 7.33 µM); IC50 (MCF-10 cells; Table 8): 314000 nM; IC50 (HepG2 cells; Table 8): 193000 nM
COc1cc(-c2cc(C)cc(C)c2)cc([C@@H](C)C#Cc2c(C)nc(N)nc2N)c1 [Compound 140]							5.76 µg/mL (≈ 14.9 µM)		0.097 µg/mL (≈ 0.251 µM)	47000 nM	IC50 against CgDHFR (CgDHFR): subnanomolar; IC50 (CgDHFR; [2]): 0.55 ± 0.3 nM; IC50 (CgDHFR; [3]): 0.55 nM; MIC (Cg) (C. glabrata): 3.1 µg/mL (≈ 8.02 µM); Antifungal activity MIC (C. glabrata): 3 µg/mL; MIC S. aureus / MRSA (S. aureus 13709 (MRSA)): 5.8 µg/mL (≈ 15 µM); MIC S. pyogenes (Streptococcus pyogenes): 0.1 µg/mL (≈ 0.259 µM)
CCc1nc(N)nc(N)c1C#CCc1cccc(-c2ccccc2)c1 [Compound 143]	290 ± 36 nM	10	28 ± 1.7 nM	11	26 ± 1.7 nM	45	0.71 µg/mL (≈ 2.16 µM)	842	0.04 µg/mL (≈ 0.122 µM)	32000 nM	
CCc1nc(N)nc(N)c1C#CCc1cc(OC)cc(-c2ccccc2)c1 [Compound 144]	140 ± 1 nM	2.4	59 ± 2.3 nM	3	52 ± 1.7 nM	2500	0.08 µg/mL (≈ 0.223 µM)	603	0.33 µg/mL (≈ 0.921 µM)	199000 nM	
COc1cc(-c2c(C)cccc2C)ccc1C(C)C#Cc1c(C)nc(N)nc1N (centres unmarked) [Compound F26M, 5-[3-(3-methoxy-2′6′-dimethylbiphenyl-4-yl)but-1-yn-1-yl]-6-methylpyrimidine-2,4-diamine]											Selectivity Ratio (IC50 ChDHFR/IC50 hDHFR) (ChDHFR-TS; Table 4): 455; IC50 (ChDHFR-TS; Table 4, read-out: IC50 (ChDHFR)): 7.4 ± 1.9 nM; IC50 (hDHFR; Table 4, read-out: IC50 (hDHFR)): 3370 ± 15 nM
CCc1nc(N)nc(N)c1C#CCc1cccc(-c2cncnc2)c1 [Compound 155]	160 ± 13 nM	5	35 ± 1.1 nM	7	23 ± 1.2 nM	3,333	0.15 µg/mL (≈ 0.454 µM)	26,316	0.019 µg/mL (≈ 0.0575 µM)	> 500000 nM	
COc1cc(-c2ccc(C)cc2)cc([C@@H](C)C#Cc2c(C)nc(N)nc2N)c1 [Compound 141]			410 ± 36 nM		350 ± 44 nM		0.71 µg/mL (≈ 1.91 µM)		0.024 µg/mL (≈ 0.0644 µM)	55000 nM	IC50 against CgDHFR (CgDHFR): subnanomolar; IC50 (CgDHFR; [2]): 0.6 ± 0.3 nM; IC50 (CgDHFR; [3]): 0.6 nM; MIC (Cg) (C. glabrata): 1.5 µg/mL (≈ 4.03 µM); Antifungal activity MIC (C. glabrata): 1.5 µg/mL
CCc1nc(N)nc(N)c1C#CCc1cc(-c2ccccc2)ccc1OC [Compound 142]	300 ± 10 nM	125	2.4 ± 0.2 nM	51	5.9 ± 0.2 nM	372	0.18 µg/mL (≈ 0.502 µM)	11,167	0.006 µg/mL (≈ 0.0167 µM)	67000 nM	improvement in potency against S. aureus DHFR (S. aureus DHFR; relative to compound 140): 18 fold
COc1cc(C(C)c2cnc(N)nc2N)cc(OC)c1OC (racemic) [C7-methyl TMP (rac), reference compound]											IC50 (ChDHFR-TS; read-out: IC50 against ChDHFR): 340000 nM
COc1cc(-c2ccccc2)cc([C@H](C)C#Cc2c(C)nc(N)nc2N)c1 (single isomer, unassigned) [D (S), 5-[3-(5-methoxy-biphenyl-3-yl)but-1-yn-1-yl]-6-methylpyrimidine-2,4-diamine]											IC50 (ChDHFR-TS; IC50 (ChDHFR), Table 4): 30 nM
CCC(c1cc(OC)c(OC)c(OC)c1)c1cnc(N)nc1N (racemic) [C7-ethyl TMP (rac), reference compound]											IC50 (ChDHFR-TS; read-out: IC50 against ChDHFR): 4000 nM
